Measurements: patent US20170367338A1, “COMPOSITIONS AND METHODS FOR IMPROVING AGRONOMIC CHARACTERISTICS OF PLANTS” (MONSANTO TECHNOLOGY LLC, priority 2014, published 2017)
Values after ≈ are worked out from the molar mass of the structure shown. Where two headings read alike, the source gives them in different places. Marks after values point to notes of the source that are not given here.

Experiments:
[1] = Soy seed treatment field trials (yield); assay type: in vivo; conditions: seed treatment in soy, multi-location replicated field trials
Description: (§1) Tioxazafen was combined with commercial fungicides and insecticides in a tank slurry mix with colorant, polymer, and water at the recommended rates and allowed to mix thoroughly. Using a Gustafson continuous batch seed coater the seed batch was loaded, the treatment slurry was injected and the mixture was allowed to tumble for 35-40 seconds before being ejected into a paper storage bag.
(§2) Predictive nematode sampling was conducted prior to field trial implementation to ensure appropriate levels of nematode pressure. Trial areas were divided into 2 acre sections based upon soil type, crop history, tillage, drainage, fertilization and other agronomic factors. […] Sub-samples (˜1 pint of soil) were taken from each composite sample and placed in a plastic bag, with appropriate handling to ensure viability of nematodes, and sent to a lab for nematode quantification. […]
(§3) Quantitative in-season nematode sampling using root and soil samples was conducted eight weeks after planting for corn and soy trials. […] Samples were sent to a lab for nematode quantification.
(§4) Yield data was collected using commercially available harvesting equipment to harvest each plot. The data were calculated to represent bushels per acre by taking the grain weight over the square footage of each plot and adjusting to 15% moisture.

[2] = Corn seed treatment field trials (yield); assay type: in vivo; conditions: seed treatment in corn, multi-location replicated field trials
Description: as §1, §2, §3, §4

[3] = test system: root knot nematode (RKN); assay: RKN greenhouse soil assay on cucumber plants; assay type: in vivo; conditions: Radex emulsifiable concentrate formulation (6.25% active ingredient)
[4] = test system: root knot nematode (RKN); assay: RKN greenhouse soil assay on cucumber plants; assay type: in vivo; conditions: Acetone formulation (10% acetone in 0.05% Triton X 100), 1 mg/kg
Text: Cucumber seeds are planted in a sandy soil mixture in two inch square plastic pots. When the cotyledons are fully opened and just as the first leaf begins to emerge, usually 7 days after planting, chemistry for the 7 day treatment is applied. One week later the chemistry for the 0 day treatment is applied. Separate plants are used for each application. The plants are generally in the 1-2 leaf stage now. At least four hours after the chemistry application the pots are inoculated with root knot nematode (RKN) eggs. Plants are rated for galling 14 days after the egg inoculation.
(§5) One milligram of chemistry per four pots is equal to one kilogram per hectare of chemical. A standard test uses four replications. For rates above 2 kg/ha, the desired amount of chemical is weighed into a 30 ml vial (example: 8 kg/ha rate =8 mg chemical in 30 ml vial). The chemical is dissolved in 2 ml of appropriate solvent, generally acetone. For rates below 2 kg/ha, 2 milligrams of chemistry is weighed into the vial and dissolved in 2 ml of the solvent. The appropriate amount of chemical concentrate is then pipetted into a separate 30 ml vial and solvent is added to bring the volume to 2 ml (example 0.5 kg/ha=0.5 ml of concentrate+1.5 ml solvent). Each dissolved concentrate is then brought to a total of 20 milliliters using 0.05% Triton X 100 surfactant solution.
(§6) Pots to be treated are moist but not saturated. To each of four pots, five milliliters of the appropriate chemical solution is pipetted to the media surface making sure to avoid contact with the base of the plant. Immediately following chemical application, using a mist nozzle, the pot surface is wetted sufficiently to saturate the pot watering in the chemistry. The chemical application is done in the morning.
(§7) Nematode eggs, either SCN or RKN, are added to distilled water to create a concentration of 1000 vermiform eggs […]. At least four hours after chemical treatment the eggs are applied to the treated pots plus non-treated check plants. A small hole about 1 cm deep is punched into the pot surface. One milliliter of the nematode egg slurry is pipetted into the hole. Immediately afterwards the hole is gently covered. Watering of the test plants is then restricted to only water as needed to prevent wilt for a period of 24 hours. After the 24 hour restricted watering, normal sub-irrigation watering is done for the duration of the test.

[5] = test system: Heterodera glycines (SCN); assay: Seed treatment test of soybean cyst nematode on soybean; assay type: in vivo; conditions: for pest or weed control at 0.375 mg/g / pest or weed control at 1.5 mg/g: Heterodera glycines, 672 h, read-out: percent cyst reduction relative to control blank treatment
Description: (§8) For a given concentration the chemical is dissolved in 500 ul of acetone and one gram of cucumber seed (RKN test) or soybean seed (SCN test) is added (e.g., 20 mg active ingredient in 500 ul acetone plus 1 gram of seed). The seed solutions are agitated until all seeds were thoroughly covered with the chemical solution. The acetone is then allowed to evaporate by air drying the seeds. The seeds are planted in 2-inch pots containing sandy soil and then the pots are inoculated with 1000 Meloidogyne incognita (RKN) or 1000 Heterodera glycines (SCN) eggs per pot three days after planting. Plants are rated for galling 14 days after egg inoculation for RKN or 28 days after egg inoculation for SCN.

[6] = test system: root knot nematode; assay: Pre-plant incorporated (PPI) greenhouse test of root knot nematode on cucumber plants; assay type: in vivo; conditions: fourteen day pre-plant incorporated; for pest or weed control at 4000 g/ha: 336 h, 4 kg/ha, read-out: percent control (galling reduction), 4 kg/ha rate; for pest or weed control at 8000 g/ha: 8 ka/ha, read-out: percent control (galling reduction), 8 ka/ha rate
Text: The PPI test examines the effect of pre-incorporation of compounds in soil and longer aging to simulate in furrow methods of nematicide application in the field. The PPI test exposes compounds to a higher volume of soil and drying which can result in more severe soil binding. Compounds are also aged for longer periods which can lead to more extensive biotic and abiotic degradation further limiting activity.
The chemically treated soil (sandy soil mix) for all treatment days (e.g., 7 days, 14 days, 21 days) treatments is potted into their appropriate pots. On the same day the 7 day treatment pots are seeded. One week later eggs are applied and 14 days after egg application the test is harvested. The 14 day treatments are planted 7 days after the first planting. The 14 day planting and 7 day inoculation happen on the same day. One week later the 14 day treatments are inoculated with eggs. These are harvested 14 days after the inoculation. The 21 day treatments are planted 14 days after the first planting. The 14 day inoculation and 21 day planting are done on the same day. One week later the 21 day plants are inoculated with eggs. The 7 day treatment is harvested the same day as the 21 day inoculation. Fourteen days after inoculation the 21 day plants are harvested.
For each compound a stock is prepared using 4 mg material in 4 ml of acetone. The soil is mixed by placing 80 ml of field soil and 320 ml of sand in a plastic bag and mixing well. The formulation for treatment is done by adding 2.13 ml (8 kg/ha rate), 1.06 ml (4 kg/ha rate) or 0.53 ml (2 kg/ha rate) to a vial and raising it with 10 ml in 0.05% X100. Soil is then treated by adding the entire 10 ml to the 400 ml of mix in the bag. The treated soil is immediately mixed well in the sealed bag to distribute the compound evenly. Approximately 95 ml is used to fill each 2-inch square pot up to the top with some soil compression and flattening. For each compound and for the control treatments 4 pots are filled. All pots are watered until moist but with no run-out through the bottom.
The PPI test simulates 8, 4 and 2 kg/ha rates incorporated 15 cm deep in the field and is equivalent to the 2, 1 and 0.5 kg/ha drench application rates in the standard 2-inch pot cucumber greenhouse assay.

[7] = test system: Meloidogyne incognita; assay: Summer field evaluation of pre-plant incorporated compounds on squash; assay type: in vivo; conditions: 4 kg/ha
Description: Test plots of 33 cm diameter holes were bored 41 cm deep into clay soil and filled with a mixture of 80% sand and 20% silt loam soil. Technical compound for each treatment was dissolved in 50 ml acetone containing 250 ul of Triton X-100 surfactant. This solution was added to 450 ml water and poured onto 95 liters of sand/soil mixture in a rotating drum mixer. While continuing to rotate the mixing drum 66 grams of chopped, galled, tomato roots was added and thoroughly distributed. The treated soil was sufficient to fill the top 15 cm of each of the 6 replicate plots, thus simulating a PPI treatment. The plots were then watered lightly and a mixture of M. incognita eggs and larvae were injected 5 cm deep at 5 points within the plot (100k eggs/larvae in 10m1 per plot). Three-week old squash (cv. Liberator III) with 1 fully expanded true leaf was planted 4 days after soil treatment, one per plot.

[8] = test system: caspase-3; assay: Caspase-3 activity in H4IIE cells (DEVD-AMC); assay type: cell-based; conditions: rat hepatoma derived H4IIE cells, concentrations up to 300 μM
Description: To evaluate whether the compound classes of this invention are able to induce apoptosis, caspase-3 activity was determined after compound exposure in rat hepatoma derived H4IIE cells using a caspase substrate (DEVD, Asp-Glu-Val-Asp) labeled with a fluorescent molecule, 7-Amino-4-methylcoumarin (AMC). Caspase 3 cleaves the tetrapeptide between D and AMC, thus releasing the fluorogenic […] AMC. Following the test article exposure to cells in 96-well plates, medium was aspirated from plates and PBS added to each well. Plates were stored at −80° C. to lyse cells and store samples until further analysis. On the day of analysis, plates were removed from freezer and thawed. Caspase buffer with fluorescent substrate was added to each well and incubated at room temperature for one hour. AMC release was measured in a spectrofluorometer at an excitation wavelength of 360 nm and an emission wavelength of 460 nm. Values are expressed as relative fluorescent units (RFU).

[9] = test system: C. elegans; assay: Three day C. elegans well assay; assay type: in vivo; conditions: Caenorhabditis elegans, L1 larvae
Outline: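 Contact assay in wells: DMSO dilutions (4 ul from 100× stocks at 10 mg/ml) with bacterial feed in M9 buffer plus ampicillin and nystatin. L1 (starvation-arrested) or L4 worms added, shaken at 20° C. Scored at 4, 24, 48 and 72 hours.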

[10] = test system: soybean cyst nematode (SCN); assay: SCN greenhouse sand assay on soybean plants; assay type: in vivo; conditions: Glycine max, 672 h, test d, read-out: percent control (cyst number reduction) relative to the control blank treatment; for pest or weed control at 100 g/ha: 0.1 kg/ha; for pest or weed control at 250 g/ha: 0.25 kg/ha
Text: Soybeans seeds are planted in 100% sand in two inch square plastic pots. Chemical treatment is done when the soybeans show the first trifoliate beginning to emerge about 10 to 12 days after planting. At least four hours after chemical application the nematode soybean cyst nematode (SCN) eggs are applied and 28 days after the egg inoculation the test is harvested.
as §5, §6, §7

[11] = test system: Meloidogyne incognita (RKN); assay: Seed treatment test of root knot nematode on cucumber; assay type: in vivo; conditions: 10 mg ai/gram seed (abamectin positive control), cucumber seeds
Description: as §8

[12] = mice; cited from earlier work
[13] = 24 h, one day of exposure, read-out: EC50 L1 1D
[14] = 48 h, two days of exposure, read-out: EC50 L1 2D
[15] = 72 h, three days of exposure, read-out: EC50 L1 3D

c1ccc(-c2noc(-c3cccs3)n2)cc1 [Tioxazafen, 3-phenyl-5-(2-thienyl)-1,2,4-oxadiazole]
effect on yield [1]: yield enhancement
effect on yield [2]: yield enhancement

Fc1ccc(-c2noc(-c3cccs3)n2)cc1 [compound 5479]
percent control (galling reduction), Radex 1 mg/kg [3]: 96%
percent control (galling reduction), Acetone 1 mg/kg [4]: 91%
pest or weed control at 0.375 mg/g ([5]; 0.375 mg ai/gram seed, test a): 67%
pest or weed control at 0.375 mg/g ([5]; 0.375 mg ai/gram seed, test b): 69%
pest or weed control at 1.5 mg/g ([5]; 1.5 mg ai/gram seed, test a): 88%
pest or weed control at 1.5 mg/g ([5]; 1.5 mg ai/gram seed, test b): 83%
pest or weed control at 4000 g/ha ([6]; test a): 89%
percent control (galling reduction), 2 kg/ha rate ([6]; test a): 71^a percent
pest or weed control at 8000 g/ha ([6]; test a): 100%

Clc1ccc(-c2noc(-c3ccco3)n2)cc1 [compound 5523]
percent control (galling reduction), Radex 1 mg/kg [3]: 86%
percent control (galling reduction), Acetone 1 mg/kg [4]: 86%
pest or weed control at 4000 g/ha ([6]; test a): 87%
percent control (galling reduction), 2 kg/ha rate ([6]; test a): 59^a percent
pest or weed control at 8000 g/ha ([6]; test a): 99%
control of M. incognita by PPI application [7]: significant control

Clc1ccc(-c2noc(-c3cccs3)n2)cc1 [compound 5527]
percent control (galling reduction), Radex 1 mg/kg [3]: 80%
percent control (galling reduction), Acetone 1 mg/kg [4]: 91%
pest or weed control at 0.375 mg/g ([5]; 0.375 mg ai/gram seed, test a): 43%
pest or weed control at 1.5 mg/g ([5]; 1.5 mg ai/gram seed, test a): 71%
pest or weed control at 4000 g/ha ([6]; test a): 90%
percent control (galling reduction), 2 kg/ha rate ([6]; test a): 57^a percent
pest or weed control at 8000 g/ha ([6]; test a): 96%

Fc1cc(Cl)ccc1-c1cnc(-c2cccs2)o1 [compound 5915]
induction of caspase-3 [8]: no induction of caspase-3
EC50 [9, 13]: 0.4 µg/mL (≈ 1.43 µM)
EC50 [9, 14]: 0.4 µg/mL (≈ 1.43 µM)
EC50 [9, 15]: 0.4 µg/mL (≈ 1.43 µM)
pest or weed control at 4000 g/ha ([6]; test b): 70%
pest or weed control at 8000 g/ha ([6]; test b): 99%
pest or weed control at 100 g/ha [10]: 44%
pest or weed control at 250 g/ha [10]: 74%

Cc1cc(Cl)ccc1-c1nsc(-c2ccco2)n1 [compound 5938]
induction of caspase-3 [8]: no induction of caspase-3
EC50 [9, 13]: 1.6 µg/mL (≈ 5.78 µM)
EC50 [9, 14]: 1.6 µg/mL (≈ 5.78 µM)
EC50 [9, 15]: 1.6 µg/mL (≈ 5.78 µM)
pest or weed control at 4000 g/ha ([6]; test b): 90%
pest or weed control at 8000 g/ha ([6]; test b): 100%
pest or weed control at 100 g/ha [10]: 60%
pest or weed control at 250 g/ha [10]: 89%
control of M. incognita by PPI application [7]: excellent control

Abamectin [reference compound]
percent control (galling reduction) relative to the control blank treatment [11]: 84%
oral LD50 [12]: 13.6 mg/kg
percent cyst reduction relative to control blank treatment ([5]; 0.375 mg ai/gram seed, test a): −14^a percent
percent cyst reduction relative to control blank treatment ([5]; 1.5 mg ai/gram seed, test a): −24^a percent
